Measured values taken from patent publication US20240066027A1 (DOMAIN THERAPEUTICS, priority 2020, published 2024).

molecular target: T1, human PAR-2 (hPAR-2) receptor expressed in HEK-293 T cells in an endogenous manner (Homo sapiens, UniProt P55085); test: In vitro human PAR-2 functional antagonist activity using calcium assays (Fluo4AM, FLIPR Tetra); format: cell-based; conditions: HEK-293 T cells stimulated by an EC80 of the 2-Furoyl-LIGRLO-NH2 peptide after 10 min incubation with compound; 20 concentrations, duplicate, two independent experiments
T1 construct: human PAR-2 (hPAR-2) receptor expressed in HEK-293 T cells in an endogenous manner; endogenous in cells; host or cells: HEK-293 T cells
T1 sequence (P55085 26-397): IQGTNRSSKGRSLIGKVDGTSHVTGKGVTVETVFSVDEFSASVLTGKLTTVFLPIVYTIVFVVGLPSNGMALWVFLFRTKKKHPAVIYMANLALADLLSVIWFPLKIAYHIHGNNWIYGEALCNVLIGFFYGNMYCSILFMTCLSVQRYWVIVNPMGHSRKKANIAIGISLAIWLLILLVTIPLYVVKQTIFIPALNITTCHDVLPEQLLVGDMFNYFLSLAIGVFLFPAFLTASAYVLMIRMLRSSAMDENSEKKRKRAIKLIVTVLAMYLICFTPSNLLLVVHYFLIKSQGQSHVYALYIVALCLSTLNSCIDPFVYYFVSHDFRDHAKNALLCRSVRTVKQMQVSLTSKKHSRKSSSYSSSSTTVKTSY
In short: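 Fluo4AM-loaded HEK-293 T cells were exposed to compound for 10 min to read agonist effect. They were then stimulated with an EC80 of 2-Furoyl-LIGRLO-NH2 and intracellular calcium was recorded for 5 more min on FLIPR. Antagonism was scored against buffer basal and EC80 agonist-alone signals.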

Question: With `Cc1cc(N2CCN(C(=O)c3ccc4c(-c5ccc(Cl)c(F)c5)cn(CC5CCC5)c4n3)C(C)(C)C2)nc(C)c1C(=O)O` [Example 171, 6-(4-(3-(4-chloro-3-fluorophenyl)-1-(cyclobutylmethyl)-1H-pyrrolo[2,3-b]pyridine-6-carbonyl)-3,3-dimethylpiperazin-1-yl)-2,4-dimethylnicotinic acid] as the compound, how does the IC50 read?
Answer: < 20 nM

Question: With `CC[C@H](C)n1cc(-c2ccc(Cl)c(F)c2)c2ccc(C(=O)N3CCN(c4cc(C)c(C(=O)O)c(C)n4)CC3(C)C)nc21` [Example 172, (S)-6-(4-(1-(sec-butyl)-3-(4-chloro-3-fluorophenyl)-1H-pyrrolo[2,3-b]pyridine-6-carbonyl)-3,3-dimethylpiperazin-1-yl)-2,4-dimethylnicotinic acid] as the compound, how does the IC50 read?
Answer: < 20 nM

Question: With `Cc1cc(N2CCN(C(=O)c3ccc4c(-c5ccc(Cl)c(F)c5)cn(Cc5ncco5)c4n3)C(C)(C)C2)nc(C)c1C(=O)O` [Example 173] as the compound, how does the IC50 read?
Answer: 20 to 10000 nM

Question: With `Cc1cc2c(-c3ccc(Cl)c(F)c3)cn(CC(C)C)c2nc1C(=O)N1CCN(c2cc(C)c(C(=O)O)c(C)n2)CC1(C)C` [Example 174, 6-(4-(3-(4-chloro-3-fluorophenyl)-1-isobutyl-5-methyl-1H-pyrrolo[2,3-b]pyridine-6-carbonyl)-3,3-dimethylpiperazin-1-yl)-2,4-dimethylnicotinic acid] as the compound, how does the IC50 read?
Answer: 20 to 10000 nM

Question: With `Cc1cc(N2CCN(C(=O)c3ncc4c(-c5ccc(Cl)c(F)c5)cn(CC(C)C)c4n3)C(C)(C)C2)nc(C)c1C(=O)O` [Example 175, 6-(4-(5-(4-chloro-3-fluorophenyl)-7-isobutyl-7H-pyrrolo[2,3-d]pyrimidine-2-carbonyl)-3,3-dimethylpiperazin-1-yl)-2,4-dimethylnicotinic acid] as the compound, how does the IC50 read?
Answer: 20 to 10000 nM

Question: For `CC(C)(C#N)c1ccnc(N2CCN(C(=O)c3ccc4c(-c5ccc(Cl)c(F)c5)cn(C(C)(C)C)c4n3)C(C)(C)C2)c1` [Example 176, 2-(2-(4-(1-(tert-butyl)-3-(4-chloro-3-fluorophenyl)-1H-pyrrolo[2,3-b]pyridine-6-carbonyl)-3,3-dimethylpiperazin-1-yl)pyridin-4-yl)-2-methylpropanenitrile], which IC50 is on record?
Answer: < 20 nM

Question: For `CC(C)(C(N)=O)c1ccnc(N2CCN(C(=O)c3ccc4c(-c5ccc(Cl)c(F)c5)cn(C(C)(C)C)c4n3)C(C)(C)C2)c1` [Example 177, 2-(2-(4-(1-(tert-butyl)-3-(4-chloro-3-fluorophenyl)-1H-pyrrolo[2,3-b]pyridine-6-carbonyl)-3,3-dimethylpiperazin-1-yl)pyridin-4-yl)-2-methylpropanamide], which IC50 is on record?
Answer: < 20 nM

Question: How did the IC50 turn out when `CCOP(=O)(OCC)c1ccc(N2CCN(C(=O)c3ccc4c(-c5ccc(Cl)c(F)c5)cn(C(C)(C)C)c4n3)C(C)(C)C2)nc1` [Example 178, diethyl (6-(4-(1-(tert-butyl)-3-(4-chloro-3-fluorophenyl)-1H-pyrrolo[2,3-b]pyridine-6-carbonyl)-3,3-dimethylpiperazin-1-yl)pyridin-3-yl)phosphonate] was run?
Answer: 20 to 10000 nM

Question: For `Cc1cc(N2CCN(C(=O)c3ccc4c(-c5ccc(Cl)c(F)c5)cn(C(C)(C)C)c4n3)[C@@H](C)C2)nc(C)c1C(=O)O` [Example 179, (S)-6-(4-(1-(tert-butyl)-3-(4-chloro-3-fluorophenyl)-1H-pyrrolo[2,3-b]pyridine-6-carbonyl)-3-methylpiperazin-1-yl)-2,4-dimethyinicotinic acid], which IC50 is on record?
Answer: 20 to 10000 nM

Question: For `Cc1cc(N2CCN(C(=O)c3ccc4c(-c5ccc(Cl)c(F)c5)cn(CC(C)(C)O)c4n3)C(C)(C)C2)nc(C)c1C(=O)O` [Example 180, 6-(4-(3-(4-chloro-3-fluorophenyl)-1-(2-hydroxy-2-methylpropyl)-1H-pyrrolo[2,3-b]pyridine-6-carbonyl)-3,3-dimethylpiperazin-1-yl)-2,4-dimethylnicotinic acid], which IC50 is on record?
Answer: 20 to 10000 nM

Question: Which IC50 does the source give for `Cc1cc(N2CCN(C(=O)c3ccc4c(-c5ccc(Cl)c(F)c5)cn(CC5(C)COC5)c4n3)C(C)(C)C2)nc(C)c1C(=O)O` [Example 181, 6-(4-(3-(4-chloro-3-fluorophenyl)-1-((3-methyloxetan-3-yl)methyl)-1H-pyrrolo[2,3-b]pyridine-6-carbonyl)-3,3-dimethylpiperazin-1-yl)-2,4-dimethylnicotinic acid] here?
Answer: < 20 nM

Question: With `Cc1cc(N2CCN(C(=O)c3ccc4c(-c5ccc(Cl)c(F)c5)cn(C[C@@H]5CCOC5)c4n3)C(C)(C)C2)nc(C)c1C(=O)O` [Example 182, (S)-6-(4-(3-(4-chloro-3-fluorophenyl)-1-((tetrahydrofuran-3-yl)methyl)-1H-pyrrolo[2,3-b]pyridine-6-carbonyl)-3,3-dimethylpiperazin-1-yl)-2,4-dimethylnicotinic acid] as the compound, how does the IC50 read?
Answer: 20 to 10000 nM

Question: How did the IC50 turn out when `Cc1cc(N2CCN(C(=O)c3ccc4c(-c5ccc(Cl)c(F)c5)cn(CC5(C)CCOCC5)c4n3)C(C)(C)C2)nc(C)c1C(=O)O` [Example 183, 6-(4-(3-(4-chloro-3-fluorophenyl)-1-((4-methyltetrahydro-2H-pyran-4-yl)methyl)-1H-pyrrolo[2,3-b]pyridine-6-carbonyl)-3,3-dimethylpiperazin-1-yl)-2,4-dimethyinicotinic acid] was run?
Answer: < 20 nM

Question: Which IC50 does the source give for `Cc1cc(N2CCN(C(=O)c3ccc4c(-c5ccc(Cl)c(F)c5)cn(C[C@H]5CCOC5)c4n3)C(C)(C)C2)nc(C)c1C(=O)O` [Example 184, (R)-6-(4-(3-(4-chloro-3-fluorophenyl)-1-((tetrahydrofuran-3-yl)methyl)-1H-pyrrolo[2,3-b]pyridine-6-carbonyl)-3,3-dimethylpiperazin-1-yl)-2,4-dimethyinicotinic acid] here?
Answer: < 20 nM

Question: Which IC50 does the source give for `Cc1cc(N2CCN(C(=O)c3ccc4c(n3)c(C(C)(C)C)cn4-c3ccc(Cl)c(F)c3)C(C)(C)C2)nc(C)c1C(=O)O` [Example 185, 6-(4-(3-(tert-butyl)-1-(4-chloro-3-fluorophenyl)-1H-pyrrolo[3,2-b]pyridine-5-carbonyl)-3,3-dimethylpiperazin-1-yl)-2,4-dimethylnicotinic acid] here?
Answer: < 20 nM

Question: `Cc1cc2c(-c3ccc(Cl)c(F)c3)cn(CC(C)C)c2nc1C(=O)N1CCN(c2cc(C)c(C(=O)O)c(C)n2)CC1` [Example 186, 6-(4-(3-(4-chloro-3-fluorophenyl)-1-isobutyl-5-methyl-1H-pyrrolo[2,3-b]pyridine-6-carbonyl)piperazin-1-yl)-2,4-dimethylnicotinic acid] was tested. Which IC50 did it give?
Answer: > 10000 nM

Question: Which IC50 does the source give for `CC(C)(C)n1cc(-c2ccc(Cl)c(F)c2)c2ccc(C(=O)N3CCC(Cn4cc(C(=O)O)cn4)CC3)nc21` [Example 187, 1-((1-(1-(tert-butyl)-3-(4-chloro-3-fluorophenyl)-1H-pyrrolo[2,3-b]pyridine-6-carbonyl)piperidin-4-yl)methyl)-1H-pyrazole-4-carboxylic acid] here?
Answer: 20 to 10000 nM

Question: For `Cc1cc(N2CCN(C(=O)c3cc(C)c4c(-c5ccc(Cl)c(F)c5)cn(CC(C)C)c4n3)C(C)(C)C2)nc(C)c1C(=O)O` [Example 188, 6-(4-(3-(4-chloro-3-fluorophenyl)-1-isobutyl-4-methyl-1H-pyrrolo[2,3-b]pyridine-6-carbonyl)-3,3-dimethylpiperazin-1-yl)-2,4-dimethyinicotinic acid], which IC50 is on record?
Answer: 20 to 10000 nM

Question: How did the IC50 turn out when `Cc1cc(N2CCN(C(=O)c3cc(C)c4c(-c5ccc(Cl)c(F)c5)cn(CC(C)C)c4n3)CC2)nc(C)c1C(=O)O` [Example 189, 6-(4-(3-(4-chloro-3-fluorophenyl)-1-isobutyl-4-methyl-1H-pyrrolo[2,3-b]pyridine-6-carbonyl)piperazin-1-yl)-2,4-dimethylnicotinic acid] was run?
Answer: > 10000 nM
